# Assays:
# [1] = test system: STAT3 reporter HeLa stable cell line; experiment: STAT3 luciferase reporter gene assay; assay type: cell-based; settings: pretreatment before oncostatin M stimulation (Figure S10)
# Experimental: STAT3 reporter HeLa stable cell lines were incubated in a 96-well microplate for 24 hours. Cells were pretreated with test compounds for 1 hour, and 10 ng/ml (w/v) of oncostatin M were applied and incubated for 4 hours. Cells were washed with medium not supplemented with phenol red, and Steady-Glo® reagent (Promega) was applied. After 5 min incubation, the signals were detected by ARVO Light 1420 (PerkinElmer Life Sciences). The relative signal intensity was calculated in each well as the ratio for the mean signal of vehicle.
# STAT3(136–705) = molecular target: T1, STAT3(136–705) (Homo sapiens, UniProt P40763); experiment: Multiplexed Alpha assay, STAT3-SH2 binding (AlphaLISA); settings: multiplexed binding assay; mean and SEM, three independent experiments; read-out: IC50 STAT3-SH2 binding (STAT3)
# T1 construct: amino acids 136 to 705 of human STAT3 and 136 to 703 of human STAT5b; 6×His-tag (N); made in house; host or cells: E. coli BL-21 Star (DE3) pLysS co-transformed with pBirAcm
# Experimental: Both AlphaLISA and AlphaScreen are bead-based nonradioactive binding assay systems for detecting biomolecular interactions in a microplate format. The binding of the biological partners brings the donor and acceptor beads into close proximity, and AlphaLISA produces a specific signal around 615 nm and AlphaScreen emits a broad signal between 520 and 620 nm. The assays were performed in a final reaction volume of 25 µL of the assay buffer, which contained 10 mM HEPES-NaOH (pH 7.4), 50 mM NaCl, 1 mM EDTA (pH 8.0), 0.1% (w/v) NP-40, and 10 ng/µL (w/v) BSA in a 96-well microplate at 25°C. The labeled phosphotyrosyl (pTyr, pY) peptide probes were DIG-GpYLPQTV and FITC-GpYLVLDKW for STAT3 and STAT5b, respectively. In the single assay for STAT3 binding, 100 nM STAT3(136–705) protein was incubated with a test compound dissolved in DMSO for 30 min, and 1.0 nM DIG-GpYLPQTV was added and the mixture was incubated for 90 min. Streptavidin-coated donor beads (0.25 µg/well) and anti-DIG AlphaLISA acceptor beads (0.25 µg/well) were added and incubated for 90 min before the signals were measured with EnVison Xcite (PerkinElmer Life Sciences). In the single assay for STAT5b binding, 20 nM STAT5b(136–703) was incubated with a test compound for 30 min, and 1.0 nM FITC-GpYLVLDKW was added and incubated for 90 min. Streptavidin-coated donor beads (0.25 µg/well) and anti-FITC AlphaScreen acceptor beads (0.25 µg/well) were added and incubated for 90 min before the signals were measured with EnVison Xcite. In the multiplexed assay, 100 nM STAT3(136–705) and 20 nM STAT5b(136–703) were incubated with a test compound for 30 min, and 1.0 nM DIG-GpYLPQTV and 1.0 nM FITC-GpYLVLDKW were added and incubated for 90 min. Streptavidin-coated donor beads (0.50 µg/well), anti-DIG AlphaLISA (0.25 µg/well), and anti-FITC AlphaScreen acceptor beads (0.25 µg/well) were added and incubated for 90 min before the signals were measured with EnVison Xcite. AlphaLISA and AlphaScreen signals for measuring STAT3- and STAT5b-SH2 binding, respectively, can be separately measured by using a dysprosium 572 nm and a europium 615 nm narrow bandwidth filter. In inhibitory assays, these signals for the bound state and the free state were represented as 0% and 100% inhibition, respectively. The bound state was measured by incubating the labeled peptide and the protein without test compounds. The free state was measured by incubating the same mixture with an additional 10 µM non-labeled peptide contained phosphorylated tyrosine, which competitively binds to its corresponding protein. The IC50 value was calculated by Graph pad prism 4.0. The mean and the standard error (SEM) of IC50 values were determined from three independent experiments. The Z’ value was calculated using the equation Z’ = 1–(3×SD_bound +3×SD_free)/(Signal_bound – Signal_free). STAT1 and Grb2 binding assays were performed as described in previous report. In the assays for selectivity of Compound 1, 100 pM biotinylated DIG or 100 pM biotinylated FITC was incubated with 10 µM or 30 µM Compound 1 for 30 min. Streptavidin-coated donor beads (0.25 µg/well) and anti-DIG AlphaLISA acceptor beads (0.25 µg/well) or anti-FITC AlphaScreen acceptor beads (0.25 µg/well) were added and incubated for 90 min before the signals were measured with EnVison Xcite.
# STAT1-SH2 = molecular target: T2, STAT1-SH2 (Homo sapiens, UniProt P42224); experiment: STAT1-SH2 binding AlphaScreen assay; settings: AlphaScreen assay (Figure S8A)
# T2 construct: made in house
# T2 sequence (P42224 1-750): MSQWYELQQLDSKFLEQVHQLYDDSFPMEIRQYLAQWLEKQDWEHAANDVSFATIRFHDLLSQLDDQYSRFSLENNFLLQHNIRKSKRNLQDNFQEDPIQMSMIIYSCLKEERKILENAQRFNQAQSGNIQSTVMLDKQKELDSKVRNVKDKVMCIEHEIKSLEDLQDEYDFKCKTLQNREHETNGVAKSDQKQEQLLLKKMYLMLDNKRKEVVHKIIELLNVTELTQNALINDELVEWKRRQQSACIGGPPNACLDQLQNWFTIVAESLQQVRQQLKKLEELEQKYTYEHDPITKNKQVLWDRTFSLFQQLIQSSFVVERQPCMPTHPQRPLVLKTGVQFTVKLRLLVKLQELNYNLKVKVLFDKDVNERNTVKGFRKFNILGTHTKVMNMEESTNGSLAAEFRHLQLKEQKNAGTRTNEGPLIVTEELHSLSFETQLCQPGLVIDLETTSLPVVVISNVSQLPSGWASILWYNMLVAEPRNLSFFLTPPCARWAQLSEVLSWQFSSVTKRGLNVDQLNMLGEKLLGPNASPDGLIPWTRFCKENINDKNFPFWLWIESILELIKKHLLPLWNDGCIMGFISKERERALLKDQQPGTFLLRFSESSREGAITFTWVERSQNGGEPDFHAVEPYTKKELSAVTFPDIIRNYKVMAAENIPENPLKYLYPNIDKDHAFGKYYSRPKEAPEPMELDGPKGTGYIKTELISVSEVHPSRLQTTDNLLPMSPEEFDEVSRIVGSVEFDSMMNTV
# Experimental: Both AlphaLISA and AlphaScreen are bead-based nonradioactive binding assay systems for detecting biomolecular interactions in a microplate format. The binding of the biological partners brings the donor and acceptor beads into close proximity, and AlphaLISA produces a specific signal around 615 nm and AlphaScreen emits a broad signal between 520 and 620 nm. The assays were performed in a final reaction volume of 25 µL of the assay buffer, which contained 10 mM HEPES-NaOH (pH 7.4), 50 mM NaCl, 1 mM EDTA (pH 8.0), 0.1% (w/v) NP-40, and 10 ng/µL (w/v) BSA in a 96-well microplate at 25°C. […] Streptavidin-coated donor beads (0.25 µg/well) and anti-DIG AlphaLISA acceptor beads (0.25 µg/well) were added and incubated for 90 min before the signals were measured with EnVison Xcite (PerkinElmer Life Sciences). […] Streptavidin-coated donor beads (0.25 µg/well) and anti-FITC AlphaScreen acceptor beads (0.25 µg/well) were added and incubated for 90 min before the signals were measured with EnVison Xcite. […] Streptavidin-coated donor beads (0.50 µg/well), anti-DIG AlphaLISA (0.25 µg/well), and anti-FITC AlphaScreen acceptor beads (0.25 µg/well) were added and incubated for 90 min before the signals were measured with EnVison Xcite. […] The bound state was measured by incubating the labeled peptide and the protein without test compounds. […] The IC50 value was calculated by Graph pad prism 4.0. […]
# T1 sequence (P40763 136-705): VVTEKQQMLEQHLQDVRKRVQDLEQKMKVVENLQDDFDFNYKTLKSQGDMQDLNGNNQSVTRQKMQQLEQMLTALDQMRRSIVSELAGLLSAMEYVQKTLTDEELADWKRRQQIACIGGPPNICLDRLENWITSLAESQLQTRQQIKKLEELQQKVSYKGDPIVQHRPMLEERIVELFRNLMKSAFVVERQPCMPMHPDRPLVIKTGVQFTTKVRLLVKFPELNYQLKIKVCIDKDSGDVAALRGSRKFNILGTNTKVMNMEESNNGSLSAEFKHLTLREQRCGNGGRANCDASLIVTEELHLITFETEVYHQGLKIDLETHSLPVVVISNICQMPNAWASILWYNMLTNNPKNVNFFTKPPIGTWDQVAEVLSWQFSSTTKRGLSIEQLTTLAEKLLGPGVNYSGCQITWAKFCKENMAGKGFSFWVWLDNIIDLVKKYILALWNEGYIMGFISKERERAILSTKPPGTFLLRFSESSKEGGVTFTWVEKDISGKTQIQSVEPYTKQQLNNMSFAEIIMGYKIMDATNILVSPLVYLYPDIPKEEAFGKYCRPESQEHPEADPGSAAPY
structure (smiles),measurement,setting,value
O=C1C=CC(=NC2=C(Cl)C(=O)c3ccccc3C2=O)C=C1 [Compound 1],Effect on STAT3 transcriptional activity,[1],reduced the STAT3 transcriptional activity in a dose-dependent manner
same,IC50,STAT3(136–705),5 ± 0.073 µM
same,Inhibition of STAT1-SH2 binding,STAT1-SH2,inhibited neither
